Target: dihydroorotate dehydrogenase (DHODH) (Escherichia coli, UniProt P0A7E1)
Experiment: continuous DCIP-reduction assay at […] nm, Lineweaver-Burk analysis
Type: biochemical

Chain of dihydroorotate dehydrogenase (DHODH) (P0A7E1 whole entry): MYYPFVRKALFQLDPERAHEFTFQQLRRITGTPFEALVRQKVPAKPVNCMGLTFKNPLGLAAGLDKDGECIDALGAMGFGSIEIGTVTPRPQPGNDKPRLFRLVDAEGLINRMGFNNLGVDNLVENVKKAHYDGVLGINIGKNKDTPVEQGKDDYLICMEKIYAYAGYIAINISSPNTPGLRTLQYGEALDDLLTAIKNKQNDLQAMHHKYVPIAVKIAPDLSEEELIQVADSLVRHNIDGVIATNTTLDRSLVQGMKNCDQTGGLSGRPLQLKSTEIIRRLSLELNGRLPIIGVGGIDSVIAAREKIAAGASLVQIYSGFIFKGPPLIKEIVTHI

Structure (SMILES)	Ki
CCCCCCCc1cc(=O)c2ccccc2n1O [HQNO, 2-heptyl-4(1H)-quinolone N-oxide]	239 nM
CCCCCCC=CCc1nc2ccccc2c(O)c1C [HMNQ, 4-hydroxy-3-methyl-2-(2-nonenyl)-quinoline]	51 nM
